In brackets after ≈: the same amount, converted by molar mass. Read-outs that look alike come from different tables or passages of the source.
Columns and labels:
Streptococcus pneumoniae = assay: MIC, 25 ocular isolates, broth microdilution (Example 8); format: cell-based
Description: (§1) Mueller-Hinton Broth supplemented with 2% lysed horse blood in tubes was inoculated with 25 ocular isolates of Streptococcus pneumoniae, Streptococcus viridans group, and Moraxella species (including Moraxella catarrhalis) plus two controls (Staphylococcus aureus and E. coli) and incubated at 37° C. overnight. Additionally, Mueller-Hinton Broth in tubes was inoculated with two controls (Staphylococcus aureus and E. coli) and incubated at 37° C. overnight on a shaker set at 250 rpm.
(§2) On the day of testing, a 640 μg/ml (1280 μg/ml for Serratia marcescens and Pseudomonas aeruginosa) concentration was prepared from a 1% stock solution in 0.01% acetic acid, 0.2% BSA in polypropylene tubes.
(§3) Serial doubling dilutions in 0.01% acetic acid, 0.2% BSA in 96 well polypropylene plates, which are used as reservoirs for the inoculation of the test plates, were carried out to obtain serial dilutions of test agents at 10 times the required test concentrations: 640, 320, 160, 80, 40, 20, 10, 5, 2.5, 1.25, and 0.625 μg/ml (1280, 640, 320, 160, 80, 40, 20, 10, 5, 2.5, and 1.25 μg/ml for Serratia marcescens and Pseudomonas aeruginosa).
(§4) Ten μl of diluted 10×test agents was added to each well of one row of the 96 well polypropylene plates from column 2 to column 12 (column 1 is a control for bacteria alone, with no peptide). Test agent concentrations in columns 2-12 were as follows: 64, 32, 16, 8, 4, 2, 1, 0.5, 0.25, 0.125, and 0.0625 μg/ml (128, 64, 32, 16, 8, 4, 2, 1, 0.5, 0.25, and 0.125 μg/ml for Serratia marcescens and Pseudomonas aeruginosa). The same peptide was in each of the 8 rows. One plate contained dilutions of one test agent and 8 bacterial isolates.
(§5) On the day of testing, the overnight bacterial broth cultures of Streptococcus pneumoniae, Streptococcus viridans and Moraxella species (including Moraxella catarrhalis) plus two controls (Staphylococcus aureus and E. coli) were diluted in 5 ml of trypticase soy broth to yield turbidity equal to a 0.5 McFarland standard. The final inoculum for MIC testing for Streptococcus pneumoniae, Streptococcus viridans and Moraxella species (including Moraxella catarrhalis) was achieved by placing 0.1 ml of the turbidity adjusted sample to 5 ml of Mueller-Hinton broth containing 2% lysed horse red blood cells.
(§6) Ninety μl of the bacterial suspensions was dispensed in each well from column 1 to column 12. Each bacterial isolate was placed in one row of a 96 well polypropylene plate containing the test agents. The plates were placed on shaker at 15 minutes at room temperature, and then incubated at 37° C. overnight. MICs were determined visually as the lowest concentration of drug that inhibits visible bacterial growth.

[1] = system: Moraxella species (including Moraxella catarrhalis); assay: as above; format: cell-based
Description: as §1, §2, §3, §4, §5, §6

[2] = n=25 isolates, >64 replaced with 128

For N=C(N)NCCCCC(=O)Nc1cc(C(F)(F)F)cc(NC(=O)c2cc(C(=O)Nc3cc(C(F)(F)F)cc(NC(=O)CCCCNC(=N)N)c3O[C@@H]3CCNC3)ncn2)c1O[C@@H]1CCNC1 [Oligomer 4], which MIC50 (Streptococcus pneumoniae; 25 isolates, Row 13) is on record?
The MIC50 was 1 µg/mL (≈ 1.07 µM).

What about the MIC90 (Streptococcus pneumoniae; 25 isolates, Row 22) of the same compound?
Its MIC90 is 2 µg/mL (≈ 2.13 µM).

And the “Range of MICs” value (Streptococcus pneumoniae; 25 isolates, Summary of Results, >64 was Replaced with 128)?
The value was 0.5 to 128 µg/mL.

And the MIC (Streptococcus pneumoniae; Streptococcus pneumoniae, 25 ocular isolates, Mueller-Hinton broth with 2% lysed horse red blood cells, read-out: Median MIC)?
The MIC was at most 4 µg/mL.

What about the MIC (Streptococcus pneumoniae; Streptococcus pneumoniae, isolate 1—B1386, read-out: MIC) of the same compound?
Its MIC is over 64 µg/mL.

What about the MIC (Streptococcus pneumoniae; Streptococcus pneumoniae, isolate 2—B1380, read-out: MIC) of the same compound?
The MIC was 1 µg/mL (≈ 1.07 µM).

And the MIC (Streptococcus pneumoniae; Streptococcus pneumoniae, isolate 3—B1378, read-out: MIC)?
The MIC was 1 µg/mL (≈ 1.07 µM).

And the MIC (Streptococcus pneumoniae; Streptococcus pneumoniae, isolate 4—B1377, read-out: MIC)?
The MIC was 2 µg/mL (≈ 2.13 µM).

And the MIC (Streptococcus pneumoniae; Streptococcus pneumoniae, isolate 5—B1373, read-out: MIC)?
Its MIC is 1 µg/mL (≈ 1.07 µM).

What about the MIC (Streptococcus pneumoniae; Streptococcus pneumoniae, isolate 6—B1367, read-out: MIC) of the same compound?
The MIC was 1 µg/mL (≈ 1.07 µM).

What about the MIC (Streptococcus pneumoniae; Streptococcus pneumoniae, isolate 7—B1355, read-out: MIC) of the same compound?
Its MIC is 2 µg/mL (≈ 2.13 µM).

What about the MIC (Streptococcus pneumoniae; Streptococcus pneumoniae, isolate 8—B1353, read-out: MIC) of the same compound?
The MIC was 1 µg/mL (≈ 1.07 µM).

What about the MIC (Streptococcus pneumoniae; Streptococcus pneumoniae, isolate 9—B1351, read-out: MIC) of the same compound?
Its MIC is 1 µg/mL (≈ 1.07 µM).

What about the MIC (Streptococcus pneumoniae; Streptococcus pneumoniae, isolate 10—B1339, read-out: MIC) of the same compound?
Its MIC is 1 µg/mL (≈ 1.07 µM).

What about the MIC (Streptococcus pneumoniae; Streptococcus pneumoniae, isolate 11—B1337, read-out: MIC) of the same compound?
The MIC was 0.5 µg/mL (≈ 0.534 µM).

What about the MIC (Streptococcus pneumoniae; Streptococcus pneumoniae, isolate 12—B1335, read-out: MIC) of the same compound?
The MIC was 2 µg/mL (≈ 2.13 µM).

And the MIC (Streptococcus pneumoniae; Streptococcus pneumoniae, isolate 13—B1334, read-out: MIC)?
Its MIC is 1 µg/mL (≈ 1.07 µM).

What about the MIC (Streptococcus pneumoniae; Streptococcus pneumoniae, isolate 14—B1333, read-out: MIC) of the same compound?
Its MIC is 1 µg/mL (≈ 1.07 µM).

And the MIC (Streptococcus pneumoniae; Streptococcus pneumoniae, isolate 15—B1255, read-out: MIC)?
Its MIC is 0.5 µg/mL (≈ 0.534 µM).

What about the MIC (Streptococcus pneumoniae; Streptococcus pneumoniae, isolate 16—B1288, read-out: MIC) of the same compound?
Its MIC is 1 µg/mL (≈ 1.07 µM).

And the MIC (Streptococcus pneumoniae; Streptococcus pneumoniae, isolate 17—B1287, read-out: MIC)?
Its MIC is 1 µg/mL (≈ 1.07 µM).

And the MIC (Streptococcus pneumoniae; Streptococcus pneumoniae, isolate 18—B1272, read-out: MIC)?
Its MIC is 0.5 µg/mL (≈ 0.534 µM).

And the MIC (Streptococcus pneumoniae; Streptococcus pneumoniae, isolate 19—B1264, read-out: MIC)?
The MIC was 0.5 µg/mL (≈ 0.534 µM).

And the MIC (Streptococcus pneumoniae; Streptococcus pneumoniae, isolate 20—B1252, read-out: MIC)?
The MIC was 1 µg/mL (≈ 1.07 µM).

And the MIC (Streptococcus pneumoniae; Streptococcus pneumoniae, isolate 21—B1245, read-out: MIC)?
The MIC was 0.5 µg/mL (≈ 0.534 µM).

What about the MIC (Streptococcus pneumoniae; Streptococcus pneumoniae, isolate 22—B1211, read-out: MIC) of the same compound?
Its MIC is 1 µg/mL (≈ 1.07 µM).

And the MIC (Streptococcus pneumoniae; Streptococcus pneumoniae, isolate 23—B1213, read-out: MIC)?
Its MIC is 1 µg/mL (≈ 1.07 µM).

And the MIC (Streptococcus pneumoniae; Streptococcus pneumoniae, isolate 24—B1208, read-out: MIC)?
Its MIC is 0.5 µg/mL (≈ 0.534 µM).

And the MIC (Streptococcus pneumoniae; Streptococcus pneumoniae, isolate 25—B1214, read-out: MIC)?
Its MIC is 1 µg/mL (≈ 1.07 µM).

And the MIC (Streptococcus pneumoniae; Streptococcus pneumoniae, n=25 per group, read-out: Median MIC)?
Its MIC is 1 µg/mL (≈ 1.07 µM).

What about the MIC50 (Streptococcus pneumoniae; Streptococcus pneumoniae, 25 isolates, Summary of Results, read-out: MIC50) of the same compound?
Its MIC50 is 1 µg/mL (≈ 1.07 µM).

And the MIC90 (Streptococcus pneumoniae; Streptococcus pneumoniae, 25 isolates, Summary of Results, read-out: MIC90)?
The MIC90 was 2 µg/mL (≈ 2.13 µM).

What about the MIC (Streptococcus pneumoniae; Streptococcus pneumoniae, 25 isolates, Summary of Results, read-out: Median MIC) of the same compound?
Its MIC is 1 µg/mL (≈ 1.07 µM).

What about the MIC50 (Streptococcus pneumoniae; n=25 per group) of the same compound?
The MIC50 was 1 µg/mL (≈ 1.07 µM).

What about the MIC90 (Streptococcus pneumoniae; n=25 per group) of the same compound?
Its MIC90 is 2 µg/mL (≈ 2.13 µM).

What about the “Range of MICs” value (Streptococcus pneumoniae; n=25 per group) of the same compound?
Its value is 0.5 to 128 µg/mL.

What about the MIC ([1]; Moraxella, 25 ocular isolates, Mueller-Hinton broth with 2% lysed horse red blood cells, read-out: Median MIC) of the same compound?
The MIC was at most 4 µg/mL.

And the MIC ([1]; Moraxella, isolate 1 K1614 - MS, read-out: MIC)?
Its MIC is 16 µg/mL (≈ 17.1 µM).

What about the MIC ([1]; Moraxella, isolate 2 K1661 - MS, read-out: MIC) of the same compound?
Its MIC is 32 µg/mL (≈ 34.2 µM).

And the MIC ([1]; Moraxella, isolate 3 K1643 - MS, read-out: MIC)?
Its MIC is 64 µg/mL (≈ 68.3 µM).

What about the MIC ([1]; Moraxella, isolate 4 K1640 - MS, read-out: MIC) of the same compound?
Its MIC is 8 µg/mL (≈ 8.54 µM).

And the MIC ([1]; Moraxella, isolate 5 B1431 - MS, read-out: MIC)?
Its MIC is 32 µg/mL (≈ 34.2 µM).

What about the MIC ([1]; Moraxella, isolate 6 B1429 - MS, read-out: MIC) of the same compound?
Its MIC is 1 µg/mL (≈ 1.07 µM).

And the MIC ([1]; Moraxella, isolate 7 B1418 - MS, read-out: MIC)?
Its MIC is 32 µg/mL (≈ 34.2 µM).

What about the MIC ([1]; Moraxella, isolate 8 K1784 - MS, read-out: MIC) of the same compound?
The MIC was 64 µg/mL (≈ 68.3 µM).

And the MIC ([1]; Moraxella, isolate 9 K1773 - MS, read-out: MIC)?
The MIC was 64 µg/mL (≈ 68.3 µM).

And the MIC ([1]; Moraxella, isolate 10 K1369 - MS, read-out: MIC)?
Its MIC is 2 µg/mL (≈ 2.13 µM).

And the MIC ([1]; Moraxella, isolate 11 B1275 - MS, read-out: MIC)?
The MIC was 2 µg/mL (≈ 2.13 µM).

And the MIC ([1]; Moraxella, isolate 12 B1221 - MS, read-out: MIC)?
Its MIC is 2 µg/mL (≈ 2.13 µM).

What about the MIC ([1]; Moraxella, isolate 13 B1172 - MS, read-out: MIC) of the same compound?
The MIC was over 64 µg/mL.

And the MIC ([1]; Moraxella, isolate 14 E542 - MS, read-out: MIC)?
Its MIC is 2 µg/mL (≈ 2.13 µM).

And the MIC ([1]; Moraxella, isolate 15 K678 - MS, read-out: MIC)?
The MIC was 2 µg/mL (≈ 2.13 µM).

And the MIC ([1]; Moraxella, isolate 16 K660 - MS, read-out: MIC)?
Its MIC is 2 µg/mL (≈ 2.13 µM).

And the MIC ([1]; Moraxella, isolate 17 K599 - MC, read-out: MIC)?
The MIC was 0.5 µg/mL (≈ 0.534 µM).

What about the MIC ([1]; Moraxella, isolate 18 K1650 - MC, read-out: MIC) of the same compound?
Its MIC is 64 µg/mL (≈ 68.3 µM).

And the MIC ([1]; Moraxella, isolate 19 K1373 - MC, read-out: MIC)?
The MIC was 1 µg/mL (≈ 1.07 µM).

And the MIC ([1]; Moraxella, isolate 20 K1553 - MC, read-out: MIC)?
The MIC was 4 µg/mL (≈ 4.27 µM).

And the MIC ([1]; Moraxella, isolate 21 K1453 - MC, read-out: MIC)?
Its MIC is 4 µg/mL (≈ 4.27 µM).

What about the MIC ([1]; Moraxella, isolate 22 K1227 - MC, read-out: MIC) of the same compound?
Its MIC is 2 µg/mL (≈ 2.13 µM).

And the MIC ([1]; Moraxella, isolate 23 B1102 - MC, read-out: MIC)?
The MIC was 1 µg/mL (≈ 1.07 µM).

And the MIC ([1]; Moraxella, isolate 24 K1819 - MC, read-out: MIC)?
Its MIC is 4 µg/mL (≈ 4.27 µM).

And the MIC ([1]; Moraxella, isolate 25 K1855 - MC, read-out: MIC)?
Its MIC is 2 µg/mL (≈ 2.13 µM).

What about the MIC50 ([1]; Moraxella, n=25 isolates, >64 replaced with 128, read-out: MIC50) of the same compound?
The MIC50 was 4 µg/mL (≈ 4.27 µM).

What about the MIC90 ([1]; Moraxella, n=25 isolates, >64 replaced with 128, read-out: MIC90) of the same compound?
Its MIC90 is 64 µg/mL (≈ 68.3 µM).

And the MIC ([1]; Moraxella, n=25 isolates, >64 replaced with 128, read-out: Median MIC)?
The MIC was 4 µg/mL (≈ 4.27 µM).

And the MIC50 [1, 2]?
Its MIC50 is 4 µg/mL (≈ 4.27 µM).

And the MIC90 [1, 2]?
The MIC90 was 64 µg/mL (≈ 68.3 µM).

What about the “Range of MICs” value [1, 2] of the same compound?
Its value is 0.5 to 128 µg/mL.
